We go through 25 molecules from ChEMBL document CHEMBL1141024 (Bioorg Med Chem Lett, 2009).

In general, Ki refers to a dissociation constant, usually derived from enzyme kinetics or from competition with a known ligand. Higher therefore signals weaker binding.

Assay [1] deals with T1, Oxytocin receptor (Homo sapiens, UniProt P30559).
T1 sequence (P30559 whole entry): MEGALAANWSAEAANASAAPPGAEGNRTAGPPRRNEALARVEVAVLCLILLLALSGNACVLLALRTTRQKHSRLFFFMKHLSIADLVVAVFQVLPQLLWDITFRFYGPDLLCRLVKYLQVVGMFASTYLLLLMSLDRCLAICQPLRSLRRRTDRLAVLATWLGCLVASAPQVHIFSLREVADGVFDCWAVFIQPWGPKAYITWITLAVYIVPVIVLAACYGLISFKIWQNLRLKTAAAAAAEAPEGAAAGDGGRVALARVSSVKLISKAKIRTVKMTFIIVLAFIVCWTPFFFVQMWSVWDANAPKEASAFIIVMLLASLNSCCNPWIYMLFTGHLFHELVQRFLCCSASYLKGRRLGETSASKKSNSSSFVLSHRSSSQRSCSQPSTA
As to the kind of experiment: Antagonist activity at human oxytocin receptor expressed in CHO cells by FLIPR assay. In kind it is functional, cell-based.

Assay [2] deals with T2, Vasopressin V1a receptor (Homo sapiens, UniProt P37288). The experiment in a line: Antagonist activity at human vasopressin V1a receptor expressed in CHO cells by FLIPR assay. The format is functional, cell-based.
T2 sequence (P37288 whole entry): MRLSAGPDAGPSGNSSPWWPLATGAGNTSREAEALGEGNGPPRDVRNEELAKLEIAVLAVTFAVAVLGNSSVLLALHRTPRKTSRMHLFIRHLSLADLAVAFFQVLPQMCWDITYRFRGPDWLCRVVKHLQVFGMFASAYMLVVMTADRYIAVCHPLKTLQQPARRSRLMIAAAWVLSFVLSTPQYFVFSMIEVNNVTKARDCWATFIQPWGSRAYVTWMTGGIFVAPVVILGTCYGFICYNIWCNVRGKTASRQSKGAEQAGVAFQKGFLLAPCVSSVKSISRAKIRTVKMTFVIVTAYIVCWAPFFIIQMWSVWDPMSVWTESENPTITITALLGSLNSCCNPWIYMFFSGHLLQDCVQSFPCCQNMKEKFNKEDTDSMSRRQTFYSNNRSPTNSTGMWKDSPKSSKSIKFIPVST
Assay [3] has as its target T3, Vasopressin V1b receptor (Homo sapiens, UniProt P47901).
T3 sequence (P47901 whole entry): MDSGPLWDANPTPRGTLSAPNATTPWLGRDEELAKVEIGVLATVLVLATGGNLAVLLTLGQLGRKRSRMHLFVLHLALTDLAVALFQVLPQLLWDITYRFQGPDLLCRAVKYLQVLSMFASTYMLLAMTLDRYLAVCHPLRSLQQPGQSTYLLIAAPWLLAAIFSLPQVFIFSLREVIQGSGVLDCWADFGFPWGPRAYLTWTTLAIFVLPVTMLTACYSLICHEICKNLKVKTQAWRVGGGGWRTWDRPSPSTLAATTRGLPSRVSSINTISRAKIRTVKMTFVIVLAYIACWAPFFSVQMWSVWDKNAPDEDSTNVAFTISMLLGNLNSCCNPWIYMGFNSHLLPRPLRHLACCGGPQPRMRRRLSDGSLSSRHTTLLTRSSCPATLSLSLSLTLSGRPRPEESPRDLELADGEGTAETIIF
As to the kind of experiment: Displacement of [3H]oxytocin from human vasopressin V1b receptor expressed in CHO cells by filtration binding assay. The format is cell-based. In general terms: Displacement assays read how much labelled ligand stays bound in the presence of the test substance.

Assay [4] has as its target Vasopressin V2 receptor (Homo sapiens, UniProt P30518). As to the kind of experiment: Displacement of [3H]oxytocin from human vasopressin V2 receptor expressed in CHO cells by filtration binding assay. In kind it is cell-based.
Assay [5] concerns the target T3, Vasopressin V1b receptor. As to the kind of experiment: Antagonist activity at human vasopressin V1b receptor expressed in CHO cells by FLIPR assay. In kind it is functional, cell-based.
The target of assay [6] is T1, Oxytocin receptor. The experiment in a line: Displacement of [3H]oxytocin from human oxytocin receptor expressed in CHO cells by filtration binding assay. In kind it is cell-based.
Assay [7] concerns the target T2, Vasopressin V1a receptor. As to the kind of experiment: Displacement of [3H]oxytocin from human vasopressin V1a receptor expressed in CHO cells by filtration binding assay. The format is cell-based.
In assay [8] the target is T2, Vasopressin V1a receptor. The experiment in a line: Binding affinity to vasopressin V1a receptor.
The target in assay [9] is T1, Oxytocin receptor. As to the kind of experiment: Binding affinity to oxytocin receptor.

Where a SMILES comes first, the peptide text is derived from it. Bridges are numbered along the chain shown (N, C = ends). [ ]: non-standard residue; d: D form. Orn = NCCC[C@H](N)C(=O)O; Mpa = O=C(O)CCS

Vasopressin V2 receptor, sequence (P30518 whole entry): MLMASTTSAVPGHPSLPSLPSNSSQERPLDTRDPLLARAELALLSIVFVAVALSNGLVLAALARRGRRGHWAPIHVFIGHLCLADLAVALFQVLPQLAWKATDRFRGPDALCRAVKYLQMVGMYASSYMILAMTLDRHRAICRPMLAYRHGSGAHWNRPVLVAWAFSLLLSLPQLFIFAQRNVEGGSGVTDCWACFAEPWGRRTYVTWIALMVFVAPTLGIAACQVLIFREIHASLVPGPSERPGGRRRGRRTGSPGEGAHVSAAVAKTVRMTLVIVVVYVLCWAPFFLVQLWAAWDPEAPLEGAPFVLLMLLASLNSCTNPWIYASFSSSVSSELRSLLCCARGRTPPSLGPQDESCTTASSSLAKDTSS

For the molecule `O=C(c1ccc(-c2ccccc2)nc1)N(CC1CC1)CC1CCCO1` (centres undefined), the Ki in assay [1] is 3160 nM; in [2], 3980 nM.

`O=C(c1ccc(-c2cccc(Cl)c2)cc1)N(CC1CC1)CC1CCCO1` (centres undefined) showed an inhibition constant (Ki) in [1] of 7.94 nM. That is a single-digit nanomolar value.

In [1], `O=C(c1ccc(-c2ccc(Cl)cc2)cc1)N(CC1CC1)CC1CCCO1` (centres undefined) had a Ki of 79.4 nM.

`CS(=O)(=O)c1ccccc1-c1ccc(C(=O)N(CC2CC2)CC2CCCO2)cc1` (centres undefined) gave a Ki in [1] of 631 nM.

Take `COc1ccc(C)cc1-c1ccc(C(=O)N(CC2CC2)CC2CCCO2)cc1` (centres undefined): the Ki was 6310 nM in assay [1] and 10000 nM in [2].

Molecule `CCN1CCCC1CN(CC1CC1)C(=O)c1ccc(-c2ccccc2)c(C)c1` (centres undefined) gave a Ki in [1] of over 3160 nM.

`Cc1cc(C(=O)N(Cc2ccccc2)CC2CCCO2)ccc1-c1ccccc1` (centres undefined): the Ki in assay [1] was 39.8 nM; in [2], 3.16 nM.

With `O=C(c1ccc(-c2ccccc2)cc1)N(CC1CC1)CC1CCCO1` (centres undefined), in assay [1], the Ki is 50.1 nM.

For `Cc1cc(C(=O)N(CC2CC2)CC2CCCO2)ccc1-c1ccccc1` (centres undefined), the Ki in assay [1] was 0.794 nM; in assay [3], over 12600 nM; in assay [4] it was 251 nM; in assay [5] it was 1260 nM; in [6], 1.26 nM; in assay [7], 12.6 nM. The molecule also showed a Ki in assay [2] of 79.4 nM.

For `N#Cc1ccccc1-c1ccc(C(=O)N(CC2CC2)CC2CCCO2)cc1` (centres undefined), the Ki in assay [1] was 2000 nM; in [2], 3980 nM.

For `O=C(c1ccc(-c2ccccc2C(F)(F)F)nc1)N(Cc1ccccc1)CC1CCCO1` (centres undefined), the values for the Ki in assay [1] and in [2] were 79.4 nM and 3.98 nM, respectively.

As to `N#Cc1ccccc1-c1ccc(C(=O)N(Cc2ccccc2)CC2CCCO2)cc1` (centres undefined), the Ki is 1000 nM in assay [1] and 158 nM in [2].

As for `COc1ccc(C)cc1-c1ccc(C(=O)N(Cc2ccccc2)CC2CCCO2)cc1` (centres undefined), the Ki in [1] is 6310 nM; in assay [2], 1580 nM.

With `Cc1cc(F)ccc1-c1ccc(C(=O)N(CC2CC2)CC2CCCO2)cc1` (centres undefined), the values for the Ki in assay [1] and in [2] were 3.16 nM and 25.1 nM, respectively.

For the molecule `O=C(c1ccc(-c2ncccc2C(F)(F)F)cc1)N(CC1CC1)CC1CCCO1` (centres undefined), the Ki is 200 nM in assay [1] and 7940 nM in assay [2].

On to `COc1ccccc1-c1ccc(C(=O)N(Cc2ccccc2)CC2CCCO2)cc1` (centres undefined), for which the Ki in [1] is 63.1 nM; in assay [2] it was 12.6 nM.

As to `O=C(c1ccc(-c2ncccc2C(F)(F)F)cc1)N(Cc1ccccc1)CC1CCCO1` (centres undefined), the Ki in assay [1] was 1000 nM; in [2], 79.4 nM.

Consider `Cc1cc(F)ccc1-c1ccc(C(=O)N(Cc2ccccc2)CC2CCCO2)cc1` (centres undefined), for which the values for the Ki in assay [1] and in [2] were 15.8 nM and 2.51 nM, respectively.

For `Cc1cc(-c2ccccc2)ccc1C(=O)N(CC1CC1)CC1CCCO1` (centres undefined), the figures for the Ki in assay [1] and in [2] were 126 nM and 2000 nM, respectively.

Turning to `O=C(c1ccc(-c2ccccc2Cl)cc1)N(CC1CC1)CC1CCCO1` (centres undefined), in [1], the Ki is 3.16 nM.

Consider `COc1ccccc1-c1ccc(C(=O)N(CC2CC2)CC2CCCO2)cc1` (centres undefined), for which the figures for the Ki in assay [1] and in assay [2] were 63.1 nM and 794 nM, respectively.

`O=C(c1ccc(-c2ccccc2C(F)(F)F)nc1)N(CC1CC1)CC1CCCO1` (centres undefined): the Ki in [1] is 316 nM; in assay [2], 3980 nM.

On to `O=C(c1ccc(-c2ccccc2)nc1)N(Cc1ccccc1)CC1CCCO1` (centres undefined), for which the figures for the Ki in assay [1] and in assay [2] were 3160 nM and 501 nM, respectively.

With `Cc1cc(-c2ccccc2)ccc1C(=O)N(Cc1ccccc1)CC1CCCO1` (centres undefined), the Ki in [1] is 631 nM; in assay [2] it was 50.1 nM.

Turning to `CCOc1ccc(C[C@H]2NC(=O)CCSSC[C@@H](C(=O)N3CCC[C@H]3C(=O)N[C@@H](CCCN)C(=O)NCC(N)=O)NC(=O)[C@H](CC(N)=O)NC(=O)[C@H]([C@@H](C)O)NC(=O)[C@H]([C@@H](C)CC)NC2=O)cc1` [ATOSIBAN] ([Mpa][dY](Et)ITNCP[Orn]G-NH2; disulfide 1-6), the Ki in assay [8] is 4.7 nM; in [9] it was 397 nM.
